Data on twelve compounds can be found in patent US5968956A, “Substituted piperidine derivative and medicine comprising the same” (SS Pharmaceutical Co., Ltd., priority 1995, dated 1999).

A word on the pIC50: it is the IC50 on a negative log10 scale, so that one unit is a factor of ten. A high value points to a low IC50. A word on the IC30: it is the concentration at which the effect reaches the 30% level.

pIC50: −log10 of the molar value. Where a name gives a salt, the structure may show the parent alone.

The subject of test [1] is bladder specimens enucleated from rats. The experiment in a line: Anticholinergic effect on bladder specimens enucleated from rats (contraction caused by acetylcholine). The format is cell-based, rat (male S. D.). The note with it: Rattus norvegicus; inhibition of contraction caused by acetylcholine (10^-5 M); Tyrode's solution 32° C.; agent applied 5 minutes before. The procedure:
Anticholinergic effect on bladder specimens enucleated from rats:
(§1) Male S. D. rats weighing 220-450 g were exsanguinated to death to enucleate their bladders, thereby preparing vertically split specimens (3-5 mm wide by 10-15 mm long) with each triangular part removed therefrom. Each of the specimens was suspended in a Magnus bath filled with a Tyrode's solution (32° C.) aerated by a mixed gas (95% O2, 5% CO2) with a load of 0.5 g applied thereto. The response of the specimen was recorded in terms of isometric contraction through a tension transducer. After the stability of the specimen was attained, an effect on contraction caused by acetylcholine (10^-5 M) was investigated. Incidentally, agents to be tested were applied to the individual specimens in advance for 5 minutes before the test to investigate their effects.

Test [2] shares this test system. As to the kind of experiment: Calcium antagonism against bladder specimens enucleated from rats (contraction caused by calcium chloride). The format is cell-based, rat (male S. D.). The note with it: Rattus norvegicus; inhibition of contraction caused by 10^-3 M calcium chloride after Ca removal with 1 mM EDTA; cumulative application; corrected for spontaneous relaxation. The procedure: as §1
Calcium antagonism against bladder specimens enucleated from rats:
After removal of calcium ion in specimens prepared in accordance with the testing method of Test Example 1 by adding 1 mM EDTA, 10^-3 M calcium chloride was applied to the specimens. After contraction caused by calcium chloride was stable, each of agents to be tested was applied cumulatively to the specimen. Assuming that the contraction upon the first application of the test agent was 100%, a value obtained by subtracting a spontaneous relaxation rage of a specimen, to which no agent was applied, from an inhibiting rate upon the application of the agent of varied concentrations was regarded as a contraction inhibiting rate.

Regarding `CC(C)C(O)(C(=O)NC1CCN(Cc2ccccc2)CC1)c1ccccc1` (stereo not shown) [Compound 23], the pIC50 in test [1] is 7.18. Turning to `COc1ccc(C(O)(C(=O)NC2CCN(Cc3ccccc3)CC2)C2CCCC2)cc1` (stereo not shown) [Compound 15], the pIC50 in test [1] is 6.89. This pIC50 is 0.29 log units lower than that of the compound before. Turning to `CCCOC(C(=O)OC1CCN(C)CC1)(c1ccccc1)c1ccccc1` [Propiverine hydrochloride, reference compound], the IC30 in test [2] was 12100 nM. The pIC50 in test [1] was 6.11.

In turn, `CN1CCC(NC(=O)C(O)(c2ccccc2)C2CCCCC2)CC1` (stereo not shown) [Compound 2] had a pIC50 in test [1] of 6.36. The compound `O=C(NC1CCN(Cc2ccccc2)CC1)C(O)(c1cccc(Cl)c1)C1CCCC1` (stereo not shown) [Compound 35] had a pIC50 in test [1] of 6.70. On to `O=C(NC1CCN(Cc2ccccc2)CC1)C(O)(c1ccccc1)C1CCCCC1` (stereo not shown) [Compound 1], for which the IC30 in test [2] is 2660 nM. Moreover, the pIC50 in test [1] was 7.49. The compound `CC(C)C(O)(C(=O)NC1CCN(Cc2ccccc2)CC1)c1cccc(Cl)c1` (stereo not shown) [Compound 34] gave a pIC50 in test [1] of 6.55. In the case of `Cc1ccc(C(O)(C(=O)NC2CCN(Cc3ccccc3)CC2)C(C)C)cc1` (stereo not shown) [Compound 56], the pIC50 in test [1] is 6.77. Against the preceding compound, the pIC50 is 0.22 log units higher.

The compound `O=C(NC1CCN(Cc2ccccc2)CC1)C(O)(c1ccccn1)C1CCCC1` (stereo not shown) [Compound 49] showed a pIC50 in test [1] of 8.19. This pIC50 is 1.42 log units higher than that of the compound before. As to `O=C(NC1CCN(Cc2ccccc2)CC1)C(O)(c1ccccc1)C1CC1` (stereo not shown) [Compound 3], the 30% effect concentration (IC30) in test [2] was determined as 26600 nM. In addition, in test [1], the pIC50 is 7.57. In test [1], `COc1cccc(C(O)(C(=O)NC2CCN(Cc3ccccc3)CC2)C2CCCC2)c1` (stereo not shown) [Compound 29] showed a pIC50 of 6.07. For `O=C(NC1CCN(Cc2ccccc2)CC1)C(O)(c1ccccc1)C1CCCC1` (stereo not shown) [Compound 4], the IC30 in test [2] stood at 2850 nM. For the same compound, the pIC50 in test [1] is 7.47.
